Experimental data from patent US20260199497A1, “GLUCOCORTICOID RECEPTOR AGONIST AND CONJUGATE THEREOF” (priority 2023, published 2026).
pEC50: −log10 of the molar value.

How the values were obtained:
[1] = biological target: T1, glucocorticoid receptor (Homo sapiens, UniProt P04150); experiment: GRE reporter gene test (Experiment Example 1), HEK293T cells transfected with pGL4.35 and p-Bind GR Vector; type: cell-based; conditions: for pEC50: GRE reporter gene, HEK293T cells, 18-20 h incubation; for Emax: HEK-293T, read-out: Emax; for maximum agonistic effect (Emax): compared with dexamethasone, transfected HEK293T cells
T1 sequence (P04150 524-777 limits assumed): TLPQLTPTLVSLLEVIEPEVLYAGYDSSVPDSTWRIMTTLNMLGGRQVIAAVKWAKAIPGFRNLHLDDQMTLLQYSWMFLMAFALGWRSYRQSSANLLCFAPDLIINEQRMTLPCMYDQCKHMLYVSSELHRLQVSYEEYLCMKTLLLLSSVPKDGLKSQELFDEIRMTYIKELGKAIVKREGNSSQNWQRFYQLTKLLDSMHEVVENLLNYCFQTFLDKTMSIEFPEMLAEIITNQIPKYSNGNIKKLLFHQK
Procedure: The compound of the present invention to be tested was formulated into a 10 mM solution with DMSO, and then subjected to 4-fold dilution at 10 concentration points using DMSO to obtain a 1000× mother liquor, with a final test concentration of 0.000038-10 μM.
(§1) HEK293T cells (ATCC) were plated in a 100 mm culture dish at a density of 6*10^6 cells/culture dish, and cultured for 16 h under the conditions of 37° C. and 5% CO2. Plasmids (pGL4.35 [luc2P/9XGAL4 UAS/Hygro], p-Bind GR Vector, Promega) and Lipofectamine® 3000 (Invitrogen) were mixed, added into the culture dish, and then incubated for 5-6 h under the conditions of 37° C. and 5% CO2.
In a 384-well plate (PerkinElmer), 25 nL of the compound mother liquor was added, and then HEK293T cells transfected with plasmids were added at a density of 18000 cells/well. The cells were incubated for 18-20 h under the conditions of 37° C. and 5% CO2.
After the incubation was ended, 25 μL of britelite plus luciferase assay reagent (PerkinElmer) was added, and then reading was performed using an Envision 2105 multiplate reader (PerkinElmer).
(§2) The activity was calculated using the following formula, % activity=100*(signal of compound well−average signal of negative control well)/(average signal of positive control well−average signal of negative control well). […] Fitting calculation of EC50 was performed on % activity and the logarithmic concentration of the compound using Graphpad 8.0, Y=Bottom+(Top−Bottom)/(1+10^((Log EC50−X)*HillSlope)), wherein Y is % activity, and X is the logarithmic concentration of the compound.

[2] = biological target: T1, glucocorticoid receptor; experiment: GRE reporter gene test (Experiment Example 2), HEK293T cells transfected with pGL4.35 and p-Bind GR Vector; type: cell-based; conditions: for pEC50: GRE reporter gene, HEK293T cells, 18-20 h incubation; for Emax: HEK-293T; for maximum agonistic activity (Emax): compared with dexamethasone, transfected HEK293T cells
Procedure: The compound of the present invention to be tested was formulated into a 1 mM solution with DMSO, and then subjected to 4-fold dilution at 10 concentration points using DMSO to obtain a 1000× mother liquor, with a final test concentration of 0.0000038-1 μM.
as §1
In a 384-well plate (PerkinElmer), 25 nL of the compound mother liquor was added, and then HEK293T cells transfected with plasmids were added at a density of 18000 cells/well (25 μL). The cells were incubated for 18-20 h under the conditions of 37° C. and 5% CO2.
After the incubation was ended, 25 μL of britelite plus luciferase assay reagent (PerkinElmer) was added, and then reading was performed using an Envision 2105 multimode reader (PerkinElmer).
as §2

SMILES	pEC50 [1]	Emax [1] [%]	maximum agonistic effect (Emax) [1]	pEC50 [2]	Emax [2] [%]	maximum agonistic activity (Emax) [2]
C[C@@H]1C[C@H]2[C@@H]3C[C@H](F)C4=CC(=O)C=C[C@]4(C)[C@@]3(F)[C@@H](O)C[C@]2(C)[C@@]1(OC(=O)c1ccc(F)c(N)c1)C(=O)OCCl [O-3, chloromethyl (6S,8S,9R,10S,11S,13S,14S,16R,17R)-17-((3-amino-4-fluorobenzoyl)oxy)-6,9-difluoro-11-hydroxy-10,13,16-trimethyl-3-oxo-6,7,8,9,10,11,12,13,14,15,16,17-dodecahydro-3H-cyclopenta[a]phenanthrene-17-carboxylate]	9.40	87.7	–	–	–	–
C[C@@H]1C[C@H]2[C@@H]3C[C@H](F)C4=CC(=O)C=C[C@]4(C)[C@@]3(F)[C@@H](O)C[C@]2(C)[C@@]1(OC(=O)c1cc(N)co1)C(=O)SCF [F-2, (6S,8S,9R,10S,11S,13S,14S,16R,17R)-6,9-difluoro-17-(((fluoromethyl)thio)carbonyl)-11-hydroxy-10,13,16-trimethyl-3-oxo-6,7,8,9,10,11,12,13,14,15,16,17-dodecahydro-3H-cyclopenta[a]phenanthren-17-yl 4-aminofuran-2-carboxylate]	8.92	125	superior to dexamethasone	–	–	–
C[C@@H]1C[C@H]2[C@@H]3C[C@H](F)C4=CC(=O)C=C[C@]4(C)[C@@]3(F)[C@@H](O)C[C@]2(C)[C@@]1(OC(=O)c1ccnc(N)c1)C(=O)SCF [P-1, (6S,8S,9R,10S,11S,13S,14S,16R,17R)-6,9-difluoro-17-(((fluoromethyl)thio)carbonyl)-11-hydroxy-10,13,16-trimethyl-3-oxo-6,7,8,9,10,11,12,13,14,15,16,17-dodecahydro-3H-cyclopenta[a]phenanthren-17-yl 2-aminoisonicotinate]	8.85	91.2	–	–	–	–
C[C@@H]1C[C@H]2[C@@H]3C[C@H](F)C4=CC(=O)C=C[C@]4(C)[C@@]3(F)[C@@H](O)C[C@]2(C)[C@@]1(OC(=O)c1ccc(O)cc1)C(=O)SCF [B-13]	9.57	100	–	–	–	–
C[C@]12C=CC(=O)C=C1[C@@H](F)C[C@H]1[C@@H]3CC[C@](OC(=O)/C=C/c4ccc(F)c(N)c4)(C(=O)SCF)[C@@]3(C)C[C@H](O)[C@@]12F [E-4]	–	–	–	9.00	84.8	–
C[C@@H]1C[C@H]2[C@@H]3C[C@H](F)C4=CC(=O)C=C[C@]4(C)[C@@]3(F)[C@@H](O)C[C@]2(C)[C@@]1(OC(=O)c1ccc(F)cc1)C(=O)SCF [H-5]	9.80	107	superior to dexamethasone	–	–	–
C[C@@H]1C[C@H]2[C@@H]3C[C@H](F)C4=CC(=O)C=C[C@]4(C)[C@@]3(F)[C@@H](O)C[C@]2(C)[C@@]1(OC(=O)c1ccco1)C(=O)SCCO [F-21, (6S,8S,9R,10S,11S,13S,14S,16R,17R)-6,9-difluoro-11-hydroxy-17-((2-hydroxyethyl)thio)carbonyl-10,13,16-trimethyl-3-oxo-6,7,8,9,11,12,13,14,15,16,17-dodecahydro-3H-cyclopenta[a]phenanthren-17-yl furan-2-carboxylate]	–	–	–	8.89	139	superior to dexamethasone
C[C@@H]1C[C@H]2[C@@H]3C[C@H](F)C4=CC(=O)C=C[C@]4(C)[C@@]3(F)[C@@H](O)C[C@]2(C)[C@@]1(OC(=O)c1ccc(CO)o1)C(=O)SCF [F-13, (6S,8S,9R,10S,11S,13S,14S,16R,17R)-6,9-difluoro-17-(((fluoromethyl)thio)carbonyl)-11-hydroxy-10,13,16-trimethyl-3-oxo-6,7,8,9,10,11,12,13,14,15,16,17-dodecahydro-3H-cyclopenta[a]phenanthren-17-yl 5-(hydroxymethyl)furan-2-carboxylate]	–	–	–	8.89	104	–
C[C@]12C=CC(=O)C=C1CC[C@H]1[C@@H]3CC[C@](OC(=O)c4ccc(F)c(N)c4)(C(=O)SCF)[C@@]3(C)C[C@H](O)[C@@]12F [A-2]	–	–	–	8.77	93.7	–
C[C@@H]1C[C@H]2[C@@H]3C[C@H](F)C4=CC(=O)C=C[C@]4(C)[C@@]3(F)[C@@H](O)C[C@]2(C)[C@@]1(OC(=O)c1ccccc1O)C(=O)SCF [B-25]	9.89	85.6	–	–	–	–
C[C@@H]1C[C@H]2[C@@H]3C[C@H](F)C4=CC(=O)C=C[C@]4(C)[C@@]3(F)[C@@H](O)C[C@]2(C)[C@@]1(OC(=O)c1ccc(CO)cc1)C(=O)SCF [B-31, (6S,8S,9R,10S,11S,13S,14S,16R,17R)-6,9-difluoro-17-(((fluoromethyl)thio)carbonyl)-11-hydroxy-10,13,16-trimethyl-3-oxo-6,7,8,9,10,11,12,13,14,15,16,17-dodecahydro-3H-cyclopenta[a]phenanthren-17-yl 4-(hydroxymethyl)benzoate]	–	–	–	9.49	92.5	–
C[C@@H]1C[C@H]2[C@@H]3C[C@H](F)C4=CC(=O)C=C[C@]4(C)[C@@]3(F)[C@@H](O)C[C@]2(C)[C@@]1(OC(=O)[C@H]1C[C@@H]1c1ccc(N)cc1)C(=O)SCF [C-1]	9.05	102	superior to dexamethasone	–	–	–
C[C@@H]1C[C@H]2[C@@H]3C[C@H](F)C4=CC(=O)C=C[C@]4(C)[C@@]3(F)[C@@H](O)C[C@]2(C)[C@@]1(OC(=O)/C=C/c1ccc(F)c(N)c1)C(=O)SCF [E-3]	8.92	97.2	–	–	–	–
C[C@@H]1C[C@H]2[C@@H]3C[C@H](F)C4=CC(=O)C=C[C@]4(C)[C@@]3(F)[C@@H](O)C[C@]2(C)[C@@]1(OC(=O)C[C@@H](C)O)C(=O)SCF [D-19, (6S,8S,9R,10S,11S,13S,14S,16R,17R)-6,9-difluoro-17-(((fluoromethyl)thio)carbonyl)-11-hydroxy-10,13,16-trimethyl-3-oxo-6,7,8,9,10,11,12,13,14,15,16,17-dodecahydro-3H-cyclopenta[a]phenanthren-17-yl (R)-3-hydroxybutyrate]	–	–	–	8.92	120	superior to dexamethasone
C[C@@H]1C[C@H]2[C@@H]3C[C@H](F)C4=CC(=O)C=C[C@]4(C)[C@@]3(F)[C@@H](O)C[C@]2(C)[C@@]1(OC(=O)c1cc(CO)co1)C(=O)SCF [F-9, (6S,8S,9R,10S,11S,13S,14S,16R,17R)-6,9-difluoro-17-(((fluoromethyl)thio)carbonyl)-11-hydroxy-10,13,16-trimethyl-3-oxo-6,7,8,9,10,11,12,13,14,15,16,17-dodecahydro-3H-cyclopenta[a]phenanthren-17-yl 4-(hydroxymethyl)furan-2-carboxylate]	–	–	–	9.40	134	superior to dexamethasone
C[C@@H]1C[C@H]2[C@@H]3C[C@H](F)C4=CC(=O)C=C[C@]4(C)[C@@]3(F)[C@@H](O)C[C@]2(C)[C@@]1(OC(=O)c1cccc(CO)c1)C(=O)SCF [B-35, (6S,8S,9R,10S,11S,13S,14S,16R,17R)-6,9-difluoro-17-(((fluoromethyl)thio)carbonyl)-11-hydroxy-10,13,16-trimethyl-3-oxo-6,7,8,9,10,11,12,13,14,15,16,17-dodecahydro-3H-cyclopenta[a]phenanthren-17-yl 3-(hydroxymethyl)benzoate]	–	–	–	8.62	66.2	–
C[C@@H]1C[C@H]2[C@@H]3C[C@H](F)C4=CC(=O)C=C[C@]4(C)[C@@]3(F)[C@@H](O)C[C@]2(C)[C@@]1(OC(=O)c1cccc(O)c1)C(=O)SCF [B-1]	9.72	105	superior to dexamethasone	–	–	–
C[C@]12C=CC(=O)C=C1[C@@H](F)C[C@H]1[C@@H]3CC[C@](OC(=O)c4cc(CO)co4)(C(=O)SCF)[C@@]3(C)C[C@H](O)[C@@]12F [F-10]	–	–	–	9.22	150	superior to dexamethasone
CC(O)C(=O)O[C@]1(C(=O)SCF)[C@H](C)C[C@H]2[C@@H]3C[C@H](F)C4=CC(=O)C=C[C@]4(C)[C@@]3(F)[C@@H](O)C[C@@]21C (stereo partly drawn) [D-9]	–	–	–	8.44	146	superior to dexamethasone
CC(O)CC(=O)O[C@]1(C(=O)SCF)[C@H](C)C[C@H]2[C@@H]3C[C@H](F)C4=CC(=O)C=C[C@]4(C)[C@@]3(F)[C@@H](O)C[C@@]21C (stereo partly drawn) [D-11]	–	–	–	9.10	115	superior to dexamethasone
